Experiments:
[1] = molecular target: X-linked inhibitor of apoptosis protein (XIAP) (Homo sapiens, UniProt P98170); assay: competitive fluorescence polarization with ARPF-FAM probe; format: binding
[2] = molecular target: ARPF-K(5-Fam)-NH2-peptide; assay: fluorescence polarisation

Chain of X-linked inhibitor of apoptosis protein (XIAP) (P98170 238-359): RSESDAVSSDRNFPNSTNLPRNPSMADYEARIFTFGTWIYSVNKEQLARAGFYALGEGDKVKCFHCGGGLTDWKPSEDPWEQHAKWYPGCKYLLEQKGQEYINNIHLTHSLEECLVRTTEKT

Question: `CCCCCCCCCCCC1=C(O)C(=O)C=C(O)C1=O` [embelin] was tested. Which Ki [1] did it give?
Answer: 22.3 µM

Question: Which Kd [2] does the source give for “recombinant XIAP-BIR3 domain protein (domain or fragment)” here?
Answer: 0.145 µM

Source: publication PMC4141193 (FEBS Open Bio, 2014)
